Reference: the NIST ThermoML archive (doi:10.1016/j.jct.2015.07.028)
Numbers after ± are expanded uncertainties.

Assay: molar heat capacity at saturation pressure
Settings: Small (less than 1 g) adiabatic calorimetry

C=CC(C)(C)O [2-methyl-3-buten-2-ol]
molar heat capacity [J/K/mol]
Settings	Crystal 1	Liquid
169.35 K	120.3 ± 0.7	–
169.77 K	120.8 ± 0.7	–
170 K	121 ± 0.7	–
171.3 K	122.5 ± 0.7	–
172.07 K	123.4 ± 0.7	–
173.24 K	124.6 ± 0.7	–
174.35 K	125.9 ± 0.7	–
175.17 K	126.8 ± 0.7	–
176.62 K	128.4 ± 0.7	–
177.09 K	128.8 ± 0.7	–
178.87 K	130.7 ± 0.7	–
179 K	130.8 ± 0.7	–
179.83 K	131.6 ± 0.7	–
180 K	131.9 ± 0.7	–
180.91 K	132.7 ± 0.7	–
181.12 K	133 ± 0.7	–
182.29 K	134.1 ± 0.7	–
182.8 K	134.7 ± 0.8	–
183.35 K	135.2 ± 0.8	–
184.61 K	136.5 ± 0.8	–
184.69 K	136.5 ± 0.8	–
185.57 K	137.5 ± 0.8	–
186.58 K	138.4 ± 0.8	–
186.93 K	138.7 ± 0.8	–
187.79 K	139.5 ± 0.8	–
188.45 K	140.2 ± 0.8	–
189.23 K	140.9 ± 0.8	–
189.99 K	141.7 ± 0.8	–
190 K	141.7 ± 0.8	–
190.32 K	141.9 ± 0.8	–
190.4 K	142 ± 0.8	–
191.52 K	143.1 ± 0.8	–
192.18 K	143.7 ± 0.8	–
192.46 K	144.1 ± 0.8	–
193.79 K	145.4 ± 0.8	–
194.04 K	145.5 ± 0.8	–
194.36 K	146 ± 0.8	–
194.42 K	146 ± 0.8	–
195.89 K	147.4 ± 0.8	–
196.05 K	147.7 ± 0.8	–
196.36 K	147.9 ± 0.8	–
196.53 K	148.2 ± 0.8	–
197.73 K	149.3 ± 0.8	–
198.3 K	150 ± 0.8	–
198.69 K	150.5 ± 0.8	–
199.56 K	151.3 ± 0.8	–
200 K	151.5 ± 0.8	–
200.23 K	152 ± 0.8	–
200.54 K	152.4 ± 0.8	–
200.84 K	152.9 ± 0.8	–
201.38 K	153.4 ± 0.8	–
202.15 K	154.2 ± 0.8	–
202.82 K	155.2 ± 0.9	–
202.98 K	155.5 ± 0.9	–
203.2 K	155.5 ± 0.9	–
204.05 K	156.6 ± 0.9	–
205 K	157.8 ± 0.9	–
205.1 K	158.3 ± 0.9	–
205.14 K	158.2 ± 0.9	–
205.95 K	159.3 ± 0.9	–
206.79 K	160.4 ± 0.9	–
207.21 K	161.1 ± 0.9	–
207.45 K	161.3 ± 0.9	–
207.83 K	162 ± 0.9	–
208.58 K	163 ± 0.9	–
209.3 K	164.2 ± 0.9	–
209.7 K	164.9 ± 0.9	–
209.73 K	164.8 ± 0.9	–
210 K	161.4 ± 0.8	–
210.51 K	166.1 ± 0.9	–
211.48 K	167.6 ± 0.9	–
211.99 K	168.4 ± 0.9	–
212.63 K	169.5 ± 0.9	–
213.77 K	171.3 ± 0.9	–
214.23 K	172.1 ± 0.9	–
214.72 K	172.9 ± 0.9	–
216.04 K	174.8 ± 0.9	–
216.46 K	175.1 ± 0.9	–
216.8 K	176 ± 1	–
218.3 K	178.6 ± 1	–
218.66 K	178.8 ± 1	–
218.86 K	179 ± 1	–
220 K	171.2 ± 0.9	–
220.53 K	182.2 ± 1	–
220.85 K	182.3 ± 1	–
220.9 K	182.4 ± 1	–
222.77 K	186.2 ± 1	–
222.93 K	186.4 ± 1	–
223.02 K	186.5 ± 1	–
224.94 K	191.2 ± 1	–
224.97 K	190.4 ± 1	–
225.17 K	191 ± 1	–
226.94 K	195.7 ± 1	–
227.09 K	196.6 ± 1.1	–
227.29 K	196 ± 1	–
228.88 K	201.4 ± 1.1	–
229.2 K	202.9 ± 1.1	–
229.37 K	202.7 ± 1.1	–
230.8 K	208.3 ± 1.1	–
231.27 K	210.9 ± 1.1	–
231.43 K	210.5 ± 1.1	–
232.67 K	217.3 ± 1.2	–
233.3 K	221.6 ± 1.2	–
233.43 K	221.3 ± 1.2	–
234.49 K	229.7 ± 1.2	–
235.25 K	237.1 ± 1.3	–
235.37 K	236.9 ± 1.3	–
236.24 K	248.1 ± 1.3	–
240 K	190.8 ± 1.1	–
245.03 K	195.7 ± 1.1	193.8 ± 1.1
245.63 K	–	195.7 ± 1
245.81 K	–	194.6 ± 1
246.77 K	–	194.9 ± 1
247.82 K	–	195.6 ± 1
247.97 K	–	195.7 ± 1
248.89 K	–	196.3 ± 1.1
249.15 K	–	196.4 ± 1.1
250 K	–	197.1 ± 1.1
250.07 K	–	197.1 ± 1.1
250.13 K	–	197.2 ± 1.1
250.55 K	–	197.4 ± 1.1
251.14 K	–	197.8 ± 1.1
251.38 K	–	197.9 ± 1.1
252.31 K	–	198.7 ± 1.1
252.44 K	–	198.8 ± 1.1
252.58 K	–	198.8 ± 1.1
253.39 K	–	199.4 ± 1.1
253.62 K	–	199.5 ± 1.1
254.55 K	–	200.3 ± 1.1
254.63 K	–	200.3 ± 1.1
254.88 K	–	200.5 ± 1.1
255.63 K	–	201 ± 1.1
255.85 K	–	201.2 ± 1.1
256.68 K	–	201.8 ± 1.1
256.78 K	–	201.9 ± 1.1
257.32 K	–	202.4 ± 1.1
257.86 K	–	202.7 ± 1.1
258.07 K	–	202.9 ± 1.1
258.73 K	–	203.4 ± 1.1
259 K	–	203.6 ± 1.1
259.76 K	–	204.2 ± 1.1
260 K	–	204.4 ± 1.1
260.78 K	–	205 ± 1.1
262.18 K	–	206.2 ± 1.1
262.83 K	–	206.7 ± 1.1
264.6 K	–	208.1 ± 1.1
264.88 K	–	208.4 ± 1.1
266.93 K	–	210 ± 1.1
267.01 K	–	210.2 ± 1.1
268.98 K	–	211.8 ± 1.1
269.4 K	–	212.2 ± 1.1
270 K	–	212.7 ± 1.2
271.03 K	–	213.5 ± 1.1
271.79 K	–	214.3 ± 1.1
273.08 K	–	215.2 ± 1.1
273.15 K	–	215.4 ± 1.2
274.18 K	–	216.2 ± 1.1
275.13 K	–	217.1 ± 1.2
276.55 K	–	218.4 ± 1.2
277.18 K	–	218.9 ± 1.2
278.91 K	–	220.5 ± 1.2
279.23 K	–	220.7 ± 1.2
280 K	–	221.4 ± 1.2
281.26 K	–	222.6 ± 1.2
281.28 K	–	222.6 ± 1.2
283.33 K	–	224.4 ± 1.2
283.61 K	–	224.6 ± 1.2
285.38 K	–	226.2 ± 1.2
285.94 K	–	226.8 ± 1.2
287.43 K	–	228 ± 1.2
288.26 K	–	228.9 ± 1.2
289.48 K	–	229.9 ± 1.2
290 K	–	230.3 ± 1.2
290.57 K	–	230.9 ± 1.2
291.53 K	–	231.6 ± 1.2
292.87 K	–	232.8 ± 1.2
293.58 K	–	233.4 ± 1.2
295.16 K	–	234.7 ± 1.2
295.63 K	–	235.2 ± 1.2
297.44 K	–	236.8 ± 1.2
297.69 K	–	236.9 ± 1.2
298.15 K	–	237.4 ± 1.2
299.72 K	–	238.7 ± 1.3
299.74 K	–	238.7 ± 1.3
300 K	–	238.9 ± 1.3
301.79 K	–	240.4 ± 1.3
303.84 K	–	242.1 ± 1.3
305.9 K	–	243.7 ± 1.3
307.95 K	–	245.3 ± 1.3
310 K	–	246.9 ± 1.3
310.01 K	–	246.9 ± 1.3
312.06 K	–	248.3 ± 1.3
314.12 K	–	249.9 ± 1.3
316.18 K	–	251.3 ± 1.3
318.23 K	–	252.8 ± 1.3
320 K	–	253.9 ± 1.3
320.29 K	–	254.1 ± 1.3
322.35 K	–	255.4 ± 1.3
324.41 K	–	256.7 ± 1.3
326.47 K	–	258 ± 1.4
328.53 K	–	259.1 ± 1.4
330 K	–	259.9 ± 1.3
330.59 K	–	260.2 ± 1.4
332.65 K	–	261.4 ± 1.4
334.71 K	–	262.3 ± 1.4
336.78 K	–	263.3 ± 1.4
338.84 K	–	264.2 ± 1.4
340 K	–	264.7 ± 1.4
340.9 K	–	265 ± 1.4
342.97 K	–	265.8 ± 1.4
345.03 K	–	266.6 ± 1.4
347.09 K	–	267.3 ± 1.4
349.16 K	–	268 ± 1.4
350 K	–	268.3 ± 1.4
351.22 K	–	268.7 ± 1.4
353.29 K	–	269.1 ± 1.4
355.35 K	–	269.8 ± 1.4
357.42 K	–	270.4 ± 1.4
359.48 K	–	270.9 ± 1.4
360 K	–	270.9 ± 1.4
361.55 K	–	271.3 ± 1.4
363.61 K	–	271.6 ± 1.4
365.68 K	–	272.1 ± 1.4
367.74 K	–	272.4 ± 1.4
370 K	–	272.9 ± 1.4
